{"source": "paper PMC11855478", "about": "“Bicyclic N,S-Acetals Containing Fused Cysteine-Amide System as New Heterocyclic Class Targeting Human Farnesyltransferase (FTase-h)” (International Journal of Molecular Sciences, 2025)", "key": {"[1]": {"target": "human farnesyltransferase (FTase) (Homo sapiens, UniProt P49354+P49356)", "assay": "FTase inhibitory assay (fluorescence, Dansyl-GCVLS)", "type": "biochemical", "conditions": "for IC50: human FTase in vitro; for % FTI: inhibition of human FTase at 100 μM of tested compound, mean of two experiments", "procedure": "With 40 new products in hand, the determination of their inhibitory activity on human farnesyl-transferase (FTase) in vitro was first undertaken. Dimethyl sulfoxide (DMSO) was used as the negative control, and Chaetomellic acid A was the positive reference in all assays. At the outset, and in order to select only significant results, products with an inhibitory power greater than 60% at an initial screening concentration of 100 µM were retained for the determination of their IC50 and, therefore, for further discussion. Moreover, given the number of products tested, they are grouped into three subfamilies on the basis of the degree of the sulphur atom oxidation (series of sulfides, series of sulfoxides, and series of sulfones), and the results obtained are grouped in Table 1, Table 2 and Table 3.\n3.3. FTase Inhibitory Assay\nAssays were realized in 96-well plates, prepared with a Biomek NKMC and a Biomek 3000 from Beckman Coulter, and read on a Wallac Victor fluorimeter from PerkinElmer. Per well, 20 µL of farnesyl pyrophosphate (10 μM) was added to 180 µL of a solution containing 2 µL of varied concentrations of potential inhibitors (dissolved in DMSO) and 178 μL of a solution composed of 10 μL of partially purified recombinant human FTase (15 µg mL^−1) and 1.0 µL of Dansyl-GCVLS peptide (in the following buffer: 5.6 mM DTT, 5.6 mM MgCl2, 12 μM ZnCl2 and 0.2% (w/v) octyl-β-D-glucopyranoside, 52 mM Tris/HCl, pH 7.5). Fluorescence was recorded for 15 min (0.7 s per well, 20 repeats) at 30 °C with an excitation filter at 340 nm and an emission filter of 486 nm. Each measurement was reproduced twice, in duplicate. The kinetic experiments were realized under the same conditions, either with FPP as varied substrate with a constant concentration of Dns-GCVLS of 2.5 μM or with Dns-GCVLS as varied substrate with a constant concentration of FPP of 10 μM. Non-linear regressions were performed using the Excel software."}, "[2]": {"target": "FTase", "conditions": "Figure 1, cited from earlier work"}}, "note": "Read-outs that look alike come from different tables or passages of the source.", "data": [{"compound": "CCCCCCCCCCCCCC/C(C(=O)O)=C(\\C)C(=O)O", "note": "[Ref., Chaetomellic acid A, reference compound]", "values": [{"measurement": "IC50", "setting": "[1]", "result": 183, "unit": "nM"}, {"measurement": "% FTI", "setting": "[1]", "result": 100, "unit": "%"}]}, {"compound": "O=C(NCc1cccc(C(F)(F)F)c1)[C@@H]1CS(=O)(=O)[C@H]2c3ccccc3C(=O)N12", "note": "[7aD]", "values": [{"measurement": "% FTI", "setting": "[1]", "result": 28, "unit": "%"}]}, {"compound": "CCCC[C@@H](C)/C=C(C)/C=C(\\C)C(=O)NC1=C[C@@](O)(/C=C/C=C/C=C/C(=O)NC2=C(O)CCC2=O)[C@@H]2O[C@@H]2C1=O", "note": "[Manumycin-A]", "values": [{"measurement": "IC50", "setting": "[2]; known FTIs", "result": 30, "unit": "nM"}]}, {"compound": "COc1ccc(CNC(=O)[C@@H]2CS(=O)(=O)[C@@]3(C)c4ccccc4C(=O)N23)cc1OC", "note": "[7bI]", "values": [{"measurement": "% FTI", "setting": "[1]", "result": 13, "unit": "%"}]}, {"compound": "Cn1cncc1[C@@](N)(c1ccc(Cl)cc1)c1ccc2c(c1)c(-c1cccc(Cl)c1)cc(=O)n2C", "note": "[Tipifarnib (R115777), Tipifarnib]", "values": [{"measurement": "IC50", "setting": "[2]; known FTIs", "result": 7.9, "unit": "nM"}]}, {"compound": "C[C@]12c3ccccc3C(=O)N1[C@H](C(=O)NCc1cccc(C(F)(F)F)c1)CS2(=O)=O", "note": "[7bD]", "values": [{"measurement": "% FTI", "setting": "[1]", "result": 32, "unit": "%"}]}, {"compound": "C[C@]12c3ccccc3C(=O)N1[C@H](C(=O)NCc1cccc(C(F)(F)F)c1)C[S+]2[O-]", "note": "(some centres unmarked) [5bD]", "values": [{"measurement": "% FTI", "setting": "[1]", "result": 43, "unit": "%"}]}, {"compound": "COc1ccccc1CNC(=O)[C@@H]1C[S+]([O-])[C@@]2(C)c3ccccc3C(=O)N12", "note": "(some centres unmarked) [5bG]", "values": [{"measurement": "IC50", "setting": "[1]", "result": 4.03, "unit": "nM"}, {"measurement": "% FTI", "setting": "[1]", "result": 87, "unit": "%"}]}, {"compound": "COc1cccc(CNC(=O)[C@@H]2CS(=O)(=O)[C@H]3c4ccccc4C(=O)N23)c1", "note": "[7aE]", "values": [{"measurement": "% FTI", "setting": "[1]", "result": 42, "unit": "%"}]}, {"compound": "COc1ccccc1CNC(=O)[C@@H]1CS(=O)(=O)[C@H]2c3ccccc3C(=O)N12", "note": "[7aG]", "values": [{"measurement": "% FTI", "setting": "[1]", "result": 47, "unit": "%"}]}, {"compound": "CN1C(=O)[C@]23CC4=CC=C[C@H](O)[C@H]4N2C(=O)[C@@]1(CO)SS3", "note": "[Gliotoxin]", "values": [{"measurement": "IC50", "setting": "[2]; known FTI", "result": 80000, "unit": "nM"}, {"measurement": "IC50", "setting": "[2]; known FTIs", "result": 80, "unit": "nM"}]}, {"compound": "COc1ccc(CNC(=O)[C@@H]2C[S+]([O-])[C@@]3(C)c4ccccc4C(=O)N23)cc1OC", "note": "(some centres unmarked) [5bI]", "values": [{"measurement": "FTase inhibitory activity (in words)", "setting": "[1]", "result": "complete loss of inhibitory activity"}, {"measurement": "% FTI", "setting": "[1]", "result": 0, "unit": "%"}]}, {"compound": "COc1ccc(CNC(=O)[C@@H]2CS(=O)(=O)[C@H]3c4ccccc4C(=O)N23)cc1", "note": "[7aF]", "values": [{"measurement": "% FTI", "setting": "[1]", "result": 34, "unit": "%"}]}, {"compound": "C[C@]12c3ccccc3C(=O)N1[C@H](C(=O)NCc1ccc(Cl)cc1Cl)C[S+]2[O-]", "note": "(some centres unmarked) [5bH]", "values": [{"measurement": "% FTI", "setting": "[1]", "result": 31, "unit": "%"}]}, {"compound": "CC12c3ccccc3C(=O)N1C(C(=O)NCc1ccccc1)C[S+]2[O-]", "note": "(centres unmarked) [5bA]", "values": [{"measurement": "% FTI", "setting": "[1]", "result": 30, "unit": "%"}]}, {"compound": "C[C@]12c3ccccc3C(=O)N1[C@H](C(=O)NCc1ccccc1)CS2(=O)=O", "note": "[7bA]", "values": [{"measurement": "% FTI", "setting": "[1]", "result": 41, "unit": "%"}]}, {"compound": "COc1ccc(CNC(=O)C2CS(=O)(=O)C3c4ccccc4C(=O)N23)cc1OC", "note": "(centres unmarked) [7aI]", "values": [{"measurement": "% FTI", "setting": "[1]", "result": 53, "unit": "%"}]}, {"compound": "O=C(NCc1ccccc1)[C@@H]1CS(=O)(=O)[C@H]2c3ccccc3C(=O)N12", "note": "[7aA]", "values": [{"measurement": "% FTI", "setting": "[1]", "result": 20, "unit": "%"}]}, {"compound": "CS(=O)(=O)CC[C@H](NC(=O)c1cccc(CNC(=O)[C@@H](N)CS)c1)C(=O)O", "note": "[C-AMBA-M]", "values": [{"measurement": "IC50", "setting": "[2]; known FTIs", "result": 60, "unit": "nM"}]}, {"compound": "COC1=C(OC)[C@H](O)[C@H](C/C=C(\\C)CC/C=C(\\C)CCC=C(C)C)[C@@H](C)C1=O", "note": "[Antroquinonol]", "values": [{"measurement": "IC50", "setting": "[2]; known FTIs", "result": 2990, "unit": "nM"}]}, {"compound": "COc1ccccc1CNC(=O)[C@@H]1CS(=O)(=O)[C@@]2(C)c3ccccc3C(=O)N12", "note": "[7bG]", "values": [{"measurement": "IC50", "setting": "[1]", "result": 67.3, "unit": "nM"}, {"measurement": "% FTI", "setting": "[1]", "result": 74, "unit": "%"}]}, {"compound": "C[C@]12c3ccccc3C(=O)N1[C@H](C(=O)NCc1ccc(Cl)cc1Cl)CS2(=O)=O", "note": "[7bH]", "values": [{"measurement": "FTase inhibitory activity (in words)", "setting": "[1]", "result": "false positive"}, {"measurement": "% FTI", "setting": "[1]", "result": 76, "unit": "%"}]}, {"compound": "COc1ccc(CNC(=O)[C@@H]2CS(=O)(=O)[C@@]3(C)c4ccccc4C(=O)N23)cc1", "note": "[7bF]", "values": [{"measurement": "% FTI", "setting": "[1]", "result": 44, "unit": "%"}]}, {"compound": "COc1cccc(CNC(=O)[C@@H]2C[S+]([O-])[C@@]3(C)c4ccccc4C(=O)N23)c1", "note": "(some centres unmarked) [5bE]", "values": [{"measurement": "% FTI", "setting": "[1]", "result": 62, "unit": "%"}]}, {"compound": "COc1ccc(CNC(=O)[C@@H]2C[S+]([O-])[C@@]3(C)c4ccccc4C(=O)N23)cc1", "note": "(some centres unmarked) [5bF]", "values": [{"measurement": "% FTI", "setting": "[1]", "result": 68, "unit": "%"}]}, {"compound": "COc1cccc(CNC(=O)[C@@H]2CS(=O)(=O)[C@@]3(C)c4ccccc4C(=O)N23)c1", "note": "[7bE]", "values": [{"measurement": "% FTI", "setting": "[1]", "result": 53, "unit": "%"}]}]}
